Calls of active or inactive are those of the source.
Assays:
[1] = target: T1, Neuropeptides B/W receptor type 1 (Homo sapiens, UniProt P48145); experiment: GPR7 antagonist potency, late-stage follow-up, cell-based, fluorescence, dose response, set 5 (AID 588566); type: functional
T1 sequence (P48145 whole entry): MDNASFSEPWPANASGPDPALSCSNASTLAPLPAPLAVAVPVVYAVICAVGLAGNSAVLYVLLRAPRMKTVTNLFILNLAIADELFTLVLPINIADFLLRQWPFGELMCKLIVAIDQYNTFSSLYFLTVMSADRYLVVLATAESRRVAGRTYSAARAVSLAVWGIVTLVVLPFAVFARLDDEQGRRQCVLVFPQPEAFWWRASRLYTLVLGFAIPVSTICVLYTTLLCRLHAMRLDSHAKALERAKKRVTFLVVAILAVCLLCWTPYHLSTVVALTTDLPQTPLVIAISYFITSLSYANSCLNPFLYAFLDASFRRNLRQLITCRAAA

[2] = target: Melanin-concentrating hormone receptor 1 (Homo sapiens, UniProt Q99705); experiment: Late-stage fluorescence-based counterscreen for antagonists of the G-protein coupled receptor 7 (GPR7): cell-based dose response assay to identify antagonists of the melanin-concentrating hormone receptor 1 (MCHR1) Set 5.; type: functional
Melanin-concentrating hormone receptor 1, sequence (Q99705 whole entry): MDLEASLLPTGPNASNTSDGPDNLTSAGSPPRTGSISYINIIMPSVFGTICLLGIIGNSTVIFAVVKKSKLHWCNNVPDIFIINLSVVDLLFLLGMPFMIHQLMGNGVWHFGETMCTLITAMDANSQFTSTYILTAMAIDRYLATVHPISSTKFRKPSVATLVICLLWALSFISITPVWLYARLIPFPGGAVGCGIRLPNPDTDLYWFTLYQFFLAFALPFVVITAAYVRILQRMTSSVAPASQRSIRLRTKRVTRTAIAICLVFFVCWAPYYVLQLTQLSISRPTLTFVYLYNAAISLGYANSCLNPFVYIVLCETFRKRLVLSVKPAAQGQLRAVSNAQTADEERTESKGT

[3] = Luminescence Cell-Based Dose Retest to Confirm Inhibitors of Cancer Stem Cells. [Related pubchem assays (depositor defined):AID2717, AID2721]; type: functional; conditions: Homo sapiens
[4] = cytotoxicity in HMLE control line with eGFP shRNA, dose response, counter-screen for HMLE_sh_ECad selective toxicity project, cell-based, HMLE_sh_eGFP, luminescence (AID 463074); type: functional, Homo sapiens;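 further: HMLE human mammary epithelial cells expressing control shRNA against eGFP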
[5] = target: Dual specificity protein kinase CLK1 (Homo sapiens, UniProt P49759); experiment: CLK1 kinase inhibitors, off-target check, dose response, selectivity assay for Dyrk1A inhibitor project, biochemical, cherry-picked samples (AID 588811)
Dual specificity protein kinase CLK1, sequence (P49759 whole entry): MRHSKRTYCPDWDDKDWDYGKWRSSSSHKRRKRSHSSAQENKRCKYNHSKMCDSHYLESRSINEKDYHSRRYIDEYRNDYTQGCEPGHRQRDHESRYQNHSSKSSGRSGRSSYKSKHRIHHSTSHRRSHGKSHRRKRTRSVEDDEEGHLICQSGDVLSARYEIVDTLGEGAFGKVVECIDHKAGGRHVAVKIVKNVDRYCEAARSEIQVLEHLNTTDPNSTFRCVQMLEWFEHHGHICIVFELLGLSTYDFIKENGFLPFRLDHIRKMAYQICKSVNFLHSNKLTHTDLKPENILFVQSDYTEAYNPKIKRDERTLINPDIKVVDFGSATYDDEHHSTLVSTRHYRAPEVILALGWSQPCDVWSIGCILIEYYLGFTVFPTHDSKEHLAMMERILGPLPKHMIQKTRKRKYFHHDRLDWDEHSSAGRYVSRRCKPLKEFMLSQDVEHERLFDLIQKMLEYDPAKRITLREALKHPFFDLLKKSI

[6] = target: Dual specificity tyrosine-phosphorylation-regulated kinase 1A (Rattus norvegicus, UniProt Q63470); type: biochemical, Homo sapiens
HeLa = experiment: HeLa cell cytotoxicity, dose response, cytotoxicity control for MITF activator project, CellTiter-Glo luminescence, cherry-pick samples (AID 540259); type: functional, cell-based; conditions: Homo sapiens
[7] = target: Glycogen synthase kinase-3 beta (Homo sapiens, UniProt P49841); experiment: GSK3beta kinase inhibitors, dose response, biochemical, microfluidics, dry powder samples, set 2 (AID 623989); type: functional
Glycogen synthase kinase-3 beta, sequence (P49841 whole entry): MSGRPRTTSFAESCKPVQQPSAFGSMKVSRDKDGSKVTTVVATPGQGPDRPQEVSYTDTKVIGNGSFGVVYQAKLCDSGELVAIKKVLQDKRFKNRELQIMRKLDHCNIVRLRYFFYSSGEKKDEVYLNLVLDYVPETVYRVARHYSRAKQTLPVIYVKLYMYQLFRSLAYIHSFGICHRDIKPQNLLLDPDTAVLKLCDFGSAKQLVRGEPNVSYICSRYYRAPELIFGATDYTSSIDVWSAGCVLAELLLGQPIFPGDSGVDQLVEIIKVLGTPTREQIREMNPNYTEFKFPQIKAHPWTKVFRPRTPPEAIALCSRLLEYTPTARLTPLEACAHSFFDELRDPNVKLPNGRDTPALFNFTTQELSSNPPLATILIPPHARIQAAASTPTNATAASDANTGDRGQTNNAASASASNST

[8] = target: Glycogen synthase kinase-3 alpha (Homo sapiens, UniProt P49840); experiment: human GSK3 alpha kinase inhibition, dose response, selectivity assay for GSK3beta inhibitor project, biochemical, microfluidics, dry powder samples, set 2 (AID 623978); type: functional
Glycogen synthase kinase-3 alpha, sequence (P49840 whole entry): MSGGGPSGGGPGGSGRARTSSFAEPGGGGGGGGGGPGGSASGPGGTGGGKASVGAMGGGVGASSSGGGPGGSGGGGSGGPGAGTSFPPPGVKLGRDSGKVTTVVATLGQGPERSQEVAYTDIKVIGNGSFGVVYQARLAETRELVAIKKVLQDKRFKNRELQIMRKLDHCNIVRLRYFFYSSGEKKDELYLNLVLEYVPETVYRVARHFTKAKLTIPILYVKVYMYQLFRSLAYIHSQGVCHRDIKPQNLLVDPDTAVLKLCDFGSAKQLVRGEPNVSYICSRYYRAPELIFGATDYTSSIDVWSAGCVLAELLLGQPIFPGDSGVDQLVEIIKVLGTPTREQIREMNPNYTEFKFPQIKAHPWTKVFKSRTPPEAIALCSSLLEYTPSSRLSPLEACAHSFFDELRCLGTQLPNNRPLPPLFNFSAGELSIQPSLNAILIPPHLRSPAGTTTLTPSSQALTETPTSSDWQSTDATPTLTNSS

[9] = target: Cyclin-dependent kinase 5/CDK5 activator 1 (Homo sapiens, UniProt Q00535); experiment: CDK5-p25 kinase inhibition, dose response, selectivity assay for GSK3beta inhibitor project, biochemical, microfluidic mobility shift, dry powder, set 2 (AID 623979); type: functional
Cyclin-dependent kinase 5/CDK5 activator 1, sequence (Q00535 whole entry): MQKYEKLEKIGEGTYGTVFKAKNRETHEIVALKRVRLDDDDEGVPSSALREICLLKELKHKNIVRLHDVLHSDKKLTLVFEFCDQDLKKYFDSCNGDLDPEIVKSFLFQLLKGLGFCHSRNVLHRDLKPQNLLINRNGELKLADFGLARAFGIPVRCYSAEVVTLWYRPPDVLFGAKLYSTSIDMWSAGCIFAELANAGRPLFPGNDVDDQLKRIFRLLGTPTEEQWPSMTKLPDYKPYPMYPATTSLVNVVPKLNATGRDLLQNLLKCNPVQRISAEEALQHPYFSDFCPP
Cyclin-dependent kinase 5/CDK5 activator 1, sequence (Q15078 whole entry, further chain): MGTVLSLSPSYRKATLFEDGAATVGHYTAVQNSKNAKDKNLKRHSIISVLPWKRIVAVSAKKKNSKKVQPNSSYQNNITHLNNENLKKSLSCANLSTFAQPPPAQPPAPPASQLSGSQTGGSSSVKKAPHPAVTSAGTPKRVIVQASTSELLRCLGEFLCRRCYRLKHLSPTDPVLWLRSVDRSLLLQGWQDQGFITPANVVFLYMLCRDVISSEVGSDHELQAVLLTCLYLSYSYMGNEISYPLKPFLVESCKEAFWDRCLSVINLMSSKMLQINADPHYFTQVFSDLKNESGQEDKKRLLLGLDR

[10] = HeLa cell cytotoxicity, dose response, cytotoxicity control for MgcRacGAP inhibitor project (AID 624300); type: functional
[11] = target: T2, Rac GTPase-activating protein 1 (Homo sapiens, UniProt Q9H0H5); experiment: MgcRacGAP GTPase-activating activity inhibitors, confirmation, biochemical, ADP Hunter fluorescence, primary and confirmatory (AID 624330); type: functional
T2 sequence (Q9H0H5 whole entry): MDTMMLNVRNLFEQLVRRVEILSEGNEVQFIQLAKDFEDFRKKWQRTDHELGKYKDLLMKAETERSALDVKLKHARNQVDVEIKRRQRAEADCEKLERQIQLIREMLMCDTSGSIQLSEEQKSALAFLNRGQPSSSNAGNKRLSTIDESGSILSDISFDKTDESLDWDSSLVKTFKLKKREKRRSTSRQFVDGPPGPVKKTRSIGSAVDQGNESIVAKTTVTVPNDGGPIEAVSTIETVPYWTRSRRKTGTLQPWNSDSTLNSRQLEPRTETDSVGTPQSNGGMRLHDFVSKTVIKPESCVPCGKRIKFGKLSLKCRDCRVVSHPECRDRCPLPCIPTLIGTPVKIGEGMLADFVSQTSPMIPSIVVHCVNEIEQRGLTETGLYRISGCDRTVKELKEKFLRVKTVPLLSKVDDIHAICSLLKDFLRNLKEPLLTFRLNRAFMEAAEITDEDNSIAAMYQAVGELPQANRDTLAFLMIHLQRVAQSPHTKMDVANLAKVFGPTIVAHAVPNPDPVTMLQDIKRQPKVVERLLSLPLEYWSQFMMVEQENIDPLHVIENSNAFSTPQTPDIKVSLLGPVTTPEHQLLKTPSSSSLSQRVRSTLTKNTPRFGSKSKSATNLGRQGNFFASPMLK

COc1ccc(Oc2c(Cl)cnn(CC(=O)c3ccc(Cl)cc3Cl)c2=O)cc1
active: IC50 [1] 1.85 µM | IC50 [2] 5.47 µM

COc1cccc(Nc2nc(-c3ccc(O)cc3)cs2)c1
active: AC50 [3] 19.6 µM | AC50 [4] 34.7 µM | AC50 [5] 7.47 µM | AC50 [6] 10.2 µM | AC50 (HeLa) 54.8 µM | AC50 [7] 2.8 µM | AC50 [8] 8.21 µM | AC50 [9] 33 µM | CC50 [10] 100 µM | IC50 [11] 66.1 µM

Source: ChEMBL document CHEMBL1201862, “PubChem BioAssay data set” (2004)
